Laboratory results: publication PMC12669040, “Tumour-specific STING agonist synthesis via a two-component prodrug system” (Nature Chemistry, 2025)
Several values for one entry are separate records, joined by “and”; a condition that tells them apart may be missing. Identical values can stand only once.

How the values were obtained:
[1] = Colorimetric alkylation rate constant assay with TNB^2− as non-specific thiol; type: physicochemical; design: second-order: unit not given here; conditions: for remaining [B]: in µM
[2] = Colorimetric alkylation rate constant assay with thiol N1; type: physicochemical; conditions: for remaining [A]: N1 from calibration curve (N1 in uM); for remaining [A] / remaining [B]: in µM
[3] = Time 2891 sec, [B]0 = 250, Replicates 1-3
[4] = Time 3071 sec, [B]0 = 250, Replicates 1-3
[5] = Time 3252 sec, [B]0 = 250, Replicates 1-3
[6] = Time 3433 sec, [B]0 = 250, Replicates 1-3
[7] = Time 3613 sec, [B]0 = 250, Replicates 1-3

- remaining [B] ([1]; Replicate 1, 723 sec, [B]0 = 250): 246.309
- remaining [B] ([1]; Replicate 1, 903 sec, [B]0 = 250): 246.195
- remaining [B] ([1]; Replicate 1, 1084 sec, [B]0 = 250): 246.107
- remaining [B] ([1]; Replicate 1, 1265 sec, [B]0 = 250): 246.422
- remaining [B] ([1]; Replicate 1, 1445 sec, [B]0 = 250): 246.548
- remaining [B] ([1]; Replicate 1, 1626 sec, [B]0 = 250): 246.346
- remaining [B] ([1]; Replicate 1, 1806 sec, [B]0 = 250): 245.931
- remaining [B] ([1]; Replicate 1, 1988 sec, [B]0 = 250): 245.767
- remaining [B] ([1]; Replicate 1, 2168 sec, [B]0 = 250): 245.616
- remaining [B] ([1]; Replicate 1, 2349 sec, [B]0 = 250): 245.553
- remaining [B] ([1]; Replicate 1, 2530 sec, [B]0 = 250): 245.464
- remaining [B] ([1]; Replicate 1, 2710 sec, [B]0 = 250): 245.427
- remaining [B] ([1]; Replicate 2, 542 sec, [B]0=250): 245.747
- remaining [B] ([1]; Replicate 2, 723 sec, [B]0=250): 245.533
- remaining [B] ([1]; Replicate 2, 903 sec, [B]0=250): 245.445
- remaining [B] ([1]; Replicate 2, 1084 sec, [B]0=250): 245.382
- remaining [B] ([1]; Replicate 2, 1265 sec, [B]0=250): 245.218
- remaining [B] ([1]; Replicate 2, 1445 sec, [B]0=250): 245.168
- remaining [B] ([1]; Replicate 2, 1626 sec, [B]0=250): 245.067
- remaining [B] ([1]; Replicate 2, 1806 sec, [B]0=250): 244.991
- remaining [B] ([1]; Replicate 2, 1988 sec, [B]0=250): 244.928
- remaining [B] ([1]; Replicate 2, 2168 sec, [B]0=250): 244.827
- remaining [B] ([1]; Replicate 2, 2349 sec, [B]0=250): 244.739
- remaining [B] ([1]; Replicate 2, 2530 sec, [B]0=250): 244.676
- remaining [B] ([1]; Replicate 2, 2710 sec, [B]0=250): 244.563
- remaining [B] ([1]; Replicate 3, 723 sec, [B]0=250): 245.666
- remaining [B] ([1]; Replicate 3, 903 sec, [B]0=250): 245.565
- remaining [B] ([1]; Replicate 3, 1084 sec, [B]0=250): 245.427
- remaining [B] ([1]; Replicate 3, 1265 sec, [B]0=250): 245.389
- remaining [B] ([1]; Replicate 3, 1445 sec, [B]0=250): 245.313
- remaining [B] ([1]; Replicate 3, 1626 sec, [B]0=250): 245.149
- remaining [B] ([1]; Replicate 3, 1806 sec, [B]0=250): 245.137
- remaining [B] ([1]; Replicate 3, 1988 sec, [B]0=250): 245.036
- remaining [B] ([1]; Replicate 3, 2168 sec, [B]0=250): 244.986
- remaining [B] ([1]; Replicate 3, 2349 sec, [B]0=250): 244.872
- remaining [B] ([1]; Replicate 3, 2530 sec, [B]0=250): 244.809
- remaining [B] ([1]; Replicate 3, 2710 sec, [B]0=250): 244.62
- remaining [B] [1, 3]: 244.62 and 245.338 and 244.475
- remaining [B] [1, 4]: 244.544 and 245.225 and 244.386
- remaining [B] [1, 5]: 244.481 and 245.2 and 244.323
- remaining [B] [1, 6]: 244.343 and 245.049 and 244.235
- remaining [B] [1, 7]: 244.28
- remaining [A] ([2]; Replicate 1, time 576 sec): 85.1676
- remaining [B] ([2]; Replicate 1, time 576 sec, [B]0 = 250): 231.048
- remaining [A] ([2]; Replicate 1, time 606 sec): 84.6546
- remaining [B] ([2]; Replicate 1, time 606 sec, [B]0 = 250): 230.535
- remaining [A] ([2]; Replicate 2, time 576 sec): 85.8231
- remaining [B] ([2]; Replicate 2, time 576 sec, [B]0=250): 232.681
- remaining [A] ([2]; Replicate 2, time 606 sec): 85.3129
- remaining [B] ([2]; Replicate 2, time 606 sec, [B]0=250): 232.171
- remaining [A] ([2]; Replicate 3, time 576 sec): 89.9918
- remaining [B] ([2]; Replicate 3, time 576 sec, [B]0=250): 235.444
- remaining [A] ([2]; Replicate 3, time 606 sec): 89.4236
- remaining [B] ([2]; Replicate 3, time 606 sec, [B]0=250): 234.876
- remaining [B] ([2]; time 0 sec, [B]0 = 250, replicates 1-3): 249.513 and 244.642 and 245.947
- remaining [B] ([2]; time 30 sec, [B]0 = 250, replicates 1-3): 248.485 and 243.217 and 245.21
- remaining [B] ([2]; time 60 sec, [B]0 = 250, replicates 1-3): 247.619 and 242.647 and 243.934
- remaining [B] ([2]; time 91 sec, [B]0 = 250, replicates 1-3): 246.645 and 241.963 and 243.197
- remaining [B] ([2]; time 121 sec, [B]0 = 250, replicates 1-3): 245.942 and 241.222 and 242.404
- remaining [B] ([2]; time 151 sec, [B]0 = 250, replicates 1-3): 245.265 and 240.31 and 241.667
- remaining [B] ([2]; time 182 sec, [B]0 = 250, replicates 1-3): 244.291 and 239.712 and 241.043
- remaining [B] ([2]; time 212 sec, [B]0 = 250, replicates 1-3): 243.723 and 239.142 and 240.505
- remaining [B] ([2]; time 242 sec, [B]0 = 250, replicates 1-3): 242.993 and 238.344 and 239.824
- remaining [B] ([2]; time 273 sec, [B]0 = 250, replicates 1-3): 242.1 and 237.717 and 239.002
- remaining [B] ([2]; time 303 sec, [B]0 = 250, replicates 1-3): 241.397 and 237.004 and 238.492
- remaining [B] ([2]; time 333 sec, [B]0 = 250, replicates 1-3): 240.774 and 236.377 and 237.897
- remaining [B] ([2]; time 364 sec, [B]0 = 250, replicates 1-3): 239.963 and 235.665 and 237.16
- remaining [B] ([2]; time 394 sec, [B]0 = 250, replicates 1-3): 239.367 and 234.981 and 236.423
- remaining [B] ([2]; time 424 sec, [B]0 = 250, replicates 1-3): 238.745 and 234.154 and 235.799
- remaining [B] ([2]; time 454 sec, [B]0 = 250, replicates 1-3): 238.204 and 233.641 and 235.374
- remaining [B] ([2]; time 485 sec, [B]0 = 250, replicates 1-3): 237.419 and 232.929 and 234.552
- remaining [B] ([2]; time 515 sec, [B]0 = 250, replicates 1-3): 236.662 and 232.416 and 234.155
- remaining [B] ([2]; time 545 sec, [B]0 = 250, replicates 1-3): 236.148 and 231.703 and 233.702
SMILES: O=C(CCl)Nc1ccccc1C(=O)O [Compound C5]
- second-order [1, 3]: 0.0002299 and 0.0002236 and 0.0001928
- second-order [1, 4]: 0.0002338 and 0.0002269 and 0.0001976
- second-order [1, 5]: 0.0002365 and 0.0002296 and 0.0001987
- second-order [1, 6]: 0.0002403 and 0.0002356 and 0.0002052
- second-order [1, 7]: 0.0002452 and 0.0002384 and 0.0002063
- second-order ([1]; Time 3794 sec, [B]0 = 250, Replicates 1-3): 0.0002474 and 0.0002417 and 0.0002117
- second-order ([1]; Time 3974 sec, [B]0 = 250, Replicates 1-3): 0.0002513 and 0.0002455 and 0.0002139
- second-order ([1]; Time 4155 sec, [B]0 = 250, Replicates 1-3): 0.0002546 and 0.0002504 and 0.0002193
- second-order ([1]; Time 4336 sec, [B]0 = 250, Replicates 1-3): 0.000259 and 0.0002537 and 0.000222
- second-order ([1]; Time 4516 sec, [B]0 = 250, Replicates 1-3): 0.0002623 and 0.0002543 and 0.0002291
- second-order ([1]; Time 4697 sec, [B]0 = 250, Replicates 1-3): 0.0002656 and 0.0002598 and 0.0002275
- second-order ([1]; Time 4878 sec, [B]0 = 250, Replicates 1-3): 0.0002689 and 0.0002614 and 0.0002307
- second-order ([1]; Time 5058 sec, [B]0 = 250, Replicates 1-3): 0.0002728 and 0.000267 and 0.0002367
- second-order ([1]; Time 5239 sec, [B]0 = 250, Replicates 1-3): 0.0002767 and 0.0002692 and 0.0002406
- second-order ([1]; Time 5419 sec, [B]0 = 250, Replicates 1-3): 0.0002789 and 0.0002725 and 0.0002433
- second-order ([1]; Time 5600 sec, [B]0 = 250, Replicates 1-3): 0.0002833 and 0.0002764 and 0.0002471
- second-order ([1]; Time 5781 sec, [B]0 = 250, Replicates 1-3): 0.0002878 and 0.0002803 and 0.0002499
- second-order ([1]; Time 5961 sec, [B]0 = 250, Replicates 1-3): 0.0002906 and 0.000283 and 0.0002554
- second-order ([2]; Replicate 1, time 576 sec, second-order plot value): 0.0008369
- second-order ([2]; Replicate 1, time 606 sec, second-order plot value): 0.0008631
- second-order ([2]; Replicate 2, time 576 sec, second-order plot value): 0.0007628
- second-order ([2]; Replicate 2, time 606 sec, second-order plot value): 0.0007885
- second-order ([2]; Replicate 3, time 576 sec, second-order plot value): 0.0006183
- second-order ([2]; Replicate 3, time 606 sec, second-order plot value): 0.0006452
- second-order ([2]; time 0 sec, replicates 1-3): 0.0001617 and 1.87e-5 and 0.0002136
- second-order ([2]; time 30 sec, replicates 1-3): 0.0001921 and 5.857e-5 and 0.0002732
- second-order ([2]; time 60 sec, replicates 1-3): 0.0002455 and 9.259e-5 and 0.0002974
- second-order ([2]; time 91 sec, replicates 1-3): 0.0002767 and 0.0001313 and 0.0003267
- second-order ([2]; time 121 sec, replicates 1-3): 0.0003108 and 0.0001597 and 0.0003587
- second-order ([2]; time 151 sec, replicates 1-3): 0.0003428 and 0.0001872 and 0.0003986
- second-order ([2]; time 182 sec, replicates 1-3): 0.0003702 and 0.0002272 and 0.0004251
- second-order ([2]; time 212 sec, replicates 1-3): 0.000394 and 0.0002509 and 0.0004506
- second-order ([2]; time 242 sec, replicates 1-3): 0.0004243 and 0.0002815 and 0.0004866
- second-order ([2]; time 273 sec, replicates 1-3): 0.0004614 and 0.0003194 and 0.0005152
- second-order ([2]; time 303 sec, replicates 1-3): 0.0004847 and 0.0003496 and 0.000548
- second-order ([2]; time 333 sec, replicates 1-3): 0.000512 and 0.0003766 and 0.0005771
- second-order ([2]; time 364 sec, replicates 1-3): 0.0005463 and 0.0004122 and 0.0006106
- second-order ([2]; time 394 sec, replicates 1-3): 0.0005809 and 0.0004386 and 0.0006431
- second-order ([2]; time 424 sec, replicates 1-3): 0.0006105 and 0.0004664 and 0.0006829
- second-order ([2]; time 454 sec, replicates 1-3): 0.0006308 and 0.0004908 and 0.0007078
- second-order ([2]; time 485 sec, replicates 1-3): 0.0006705 and 0.0005265 and 0.0007427
- second-order ([2]; time 515 sec, replicates 1-3): 0.0006899 and 0.0005614 and 0.0007681
- second-order ([2]; time 545 sec, replicates 1-3): 0.0007121 and 0.0005853 and 0.0008038
